Patent publication US20070298105A1, “METHODS OF TREATING CONDITIONS BY SUSTAINED RELEASE ADMINISTRATION OF BENZIMIDAZOLE DERIVATIVES” (priority 2006, published 2007)
Where two headings read alike, the source gives them in different places.

Experiments:
[1] = Colonic intubation study: plasma pharmacokinetics of rabeprazole and esomeprazole; type: in vivo, human; details: male, human, plasma, po, 40 mg; for AUC(0-inf): read-out: AUCinf (mean)
Protocol: A single-dose, open-label, partially randomized, five-treatment, five-period, crossover pilot study was performed in healthy males to determine relative pharmacokinetics of rabeprazole, and comparators when dosed either orally or colonically. The study was a single dose study with blood sampling up to 24 hours following initiation. […] Colonic dosing occurred using a nasoenteral tube. Treatment C was a single 20 mg dose of rabeprazole sodium oral enteric coated tablets dosed orally. Treatment D was placebo (200 mL of water) dosed orally. […] For subjects whose apparent elimination rate constant [k] could not be properly determined, the AUC to infinity [AUCinf]) was calculated based on the median apparent elimination constant [k] of the subjects with available t1/2 values in the same treatment period. […] The intragastric pH profile were determined.

intragastric pH = test: Colonic intubation study: intragastric pH profile (percent of time with pH >4); type: in vivo, human; details: for Mean percent of time with pH >4: TRT E: esomeprazole 40 mg oral tablet
Protocol: A single-dose, open-label, partially randomized, five-treatment, five-period, crossover pilot study was performed in healthy males to determine relative pharmacokinetics of rabeprazole, and comparators when dosed either orally or colonically. The study was a single dose study with blood sampling up to 24 hours following initiation.
Treatments A and B were rabeprazole sodium solution dosed to provide 30 and 60 mg, respectively, over 20 hours in the transverse colon of the subjects. Colonic dosing occurred using a nasoenteral tube. Treatment C was a single 20 mg dose of rabeprazole sodium oral enteric coated tablets dosed orally. Treatment D was placebo (200 mL of water) dosed orally.
The intragastric pH profile was analyzed based on the percentage of time that the intragastric pH was above 4, which was calculated for the full 24 hours. In addition, the mean pH value over 5 time intervals of 6 hours each during the 30-hr sampling time was also estimated.

[2] = TRT E: esomeprazole 40 mg oral tablet, N = 19
[3] = TRT E: esomeprazole 40 mg oral tablet, subset N = 14

`COc1ccc2nc([S@@+]([O-])Cc3ncc(C)c(OC)c3C)[nH]c2c1` [Esomeprazole] showed an AUC(0-t) [1, 2] of 1870 ng·h/mL, an AUC(0-inf) [1, 2] of 1910 ng·h/mL and a half-life ([1]; TRT E: esomeprazole 40 mg oral tablet, N = 19, read-out: t1/2 (median) (converted)) of 48 min. It also gave a Cmax ([1]; TRT E: esomeprazole 40 mg oral tablet, single dose, healthy males, N = 19) of 727 ng/mL, an AUC(0-t) [1, 3] of 2270 ng·h/mL and a Cmax [1, 3] of 800 ng/mL. For the same molecule, the AUC(0-inf) [1, 3] was 2310 ng·h/mL, the half-life ([1]; oral administration of 40 mg esomeprazole, read-out: median half-life (converted)) was about 60 min and the “Mean percent of time with pH >4” value (intragastric pH; 0-6 hr (10 am-4 pm), N = 19) was 57.0%. The “Mean percent of time with pH >4” value (intragastric pH; 0-6 hr (10 am-4 pm), subset N = 14) was 64.3%, the “Mean percent of time with pH >4” value (intragastric pH; 6-12 hr (4 pm-10 pm), N = 19) was 76.3% and the “Mean percent of time with pH >4” value (intragastric pH; 6-12 hr (4 pm-10 pm), subset N = 14) was 87.0%. The “Mean percent of time with pH >4” value (intragastric pH; 12-18 hr (10 pm-4 am), N = 19) was 36.6%, the “Mean percent of time with pH >4” value (intragastric pH; 12-18 hr (10 pm-4 am), subset N = 14) was 42.8% and the “Mean percent of time with pH >4” value (intragastric pH; 18-24 hr (4 am-10 am), N = 19) was 56.0%. For the same molecule, the “Mean percent of time with pH >4” value (intragastric pH; 18-24 hr (4 am-10 am), subset N = 14) was 60.1%, the “Mean percent of time with pH >4” value (intragastric pH; 24-30 hr (10 am-4 pm), N = 19) was 49.5% and the “Mean percent of time with pH >4” value (intragastric pH; 24-30 hr (10 am-4 pm), subset N = 14) was 57.1%. The “Mean percent of time with pH >4” value (intragastric pH; 24-hr average, N = 19) was 56.5%, the “Mean percent of time with pH >4” value (intragastric pH; 24-hr average, N = 19, listed as esomeprazole) was 57% and the “Mean percent of time with pH >4” value (intragastric pH; 24-hr average, subset N = 14) was 63.5%. For the same molecule, the “effect on percentage of time with pH >4 compared to placebo” value (intragastric pH; first 6 hours of treatment, esomeprazole treatment) was “significant increase”.
